Measured values as given in patent publication US20210395256A1, “TYROSINE KINASE INHIBITORS, COMPOSITIONS AND METHODS THERE OF” (Betta Pharmaceuticals Co., Ltd., priority 2018, published 2021).
Where two headings read alike, the source gives them in different places.

Molecular target: TrkA kinase (Homo sapiens, UniProt P04629)
Assay: TrkA kinase assay (mobility shift assay)
Assay type: biochemical
Settings: read-out: Trk A Kinase IC50
In short: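 Caliper mobility-shift readout of FAM-labelled peptide conversion by TrkA in 50 mM HEPES pH 7.5, 0.0015% Brij-35, with ATP; enzyme preincubated 10 min with compound (10-point dilution), reaction at 28 °C, EDTA stop. Inhibition relative to DMSO and no-enzyme controls; IC50 by four-parameter fit.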

Chain of TrkA kinase (P04629 33-796): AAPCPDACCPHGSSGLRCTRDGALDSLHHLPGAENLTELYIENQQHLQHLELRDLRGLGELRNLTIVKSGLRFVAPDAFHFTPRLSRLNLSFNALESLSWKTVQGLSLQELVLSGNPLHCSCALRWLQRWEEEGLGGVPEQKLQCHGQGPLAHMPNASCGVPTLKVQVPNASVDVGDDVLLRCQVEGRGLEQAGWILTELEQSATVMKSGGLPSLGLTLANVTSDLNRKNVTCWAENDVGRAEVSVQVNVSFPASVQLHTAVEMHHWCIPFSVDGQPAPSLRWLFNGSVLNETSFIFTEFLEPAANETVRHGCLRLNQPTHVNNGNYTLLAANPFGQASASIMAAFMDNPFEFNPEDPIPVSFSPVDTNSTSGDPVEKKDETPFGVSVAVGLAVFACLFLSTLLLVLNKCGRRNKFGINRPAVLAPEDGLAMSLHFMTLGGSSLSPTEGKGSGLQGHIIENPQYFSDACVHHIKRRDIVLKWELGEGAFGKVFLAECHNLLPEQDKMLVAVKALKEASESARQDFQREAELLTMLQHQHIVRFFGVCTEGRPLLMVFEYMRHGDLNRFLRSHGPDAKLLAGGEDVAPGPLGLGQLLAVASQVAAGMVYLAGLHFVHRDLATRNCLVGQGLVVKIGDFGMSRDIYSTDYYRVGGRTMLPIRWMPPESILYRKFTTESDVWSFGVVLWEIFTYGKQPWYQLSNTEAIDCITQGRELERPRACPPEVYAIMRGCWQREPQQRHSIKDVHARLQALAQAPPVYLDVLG

IC50 (class symbols) | IC50 (numeric values) | SMILES
≤ 10 nM | – | Fc1ccc(F)c([C@H]2CCCN2c2ccn3ncc(-c4nc5cc(OC(F)F)c(OC(F)F)cc5[nH]4)c3n2)c1 [Compound 109, (R)-3-(5,6-bis(difluoromethoxy)-1H-benzo[d]imidazol-2-yl)-5-(2-(2,5-difluorophenyl)pyrrolidin-1-yl)pyrazolo[1,5-a]pyrimidine]
≤ 10 nM | – | COC(=O)c1ccc(F)c2nc(-c3cnn4ccc(N5CCC[C@@H]5c5cc(F)ccc5F)nc34)oc12 [Compound 175, methyl (R)-2-(5-(2-(2,5-difluorophenyl)pyrrolidin-1-yl)pyrazolo[1,5-a]pyrimidin-3-yl)-4-fluorobenzo[d]oxazole-7-carboxylate]
> 50 nM | – | COC(=O)Oc1cc2nc(-c3cnn4ccc(N5CCC[C@@H]5c5cc(F)ccc5F)nc34)[nH]c2cc1OC(=O)OC [Compound 115, (R)-2-(5-(2-(2,5-difluorophenyl)pyrrolidin-1-yl)pyrazolo[1,5-a]pyrimidin-3-yl)-1H-benzo[d]imidazole-5,6-diyl dimethyl bis(carbonate)]
10 to 50 nM | – | Fc1ccc(F)c([C@H]2CCCN2c2ccn3ncc(-c4nnc5n4CCOC5)c3n2)c1 [Compound 200, (R)-3-(5-(2-(2,5-difluorophenyl)pyrrolidin-1-yl)pyrazolo[1,5-a]pyrimidin-3-yl)-5,6-dihydro-8H-[1,2,4]triazolo[3,4-c][1,4]oxazine]
– | 5.3 nM | Fc1ccc(F)c([C@H]2CCCN2c2ccn3ncc(-c4nc5cc(F)cc(F)c5o4)c3n2)c1 [Compound 111, (R)-2-(5-(2-(2,5-difluorophenyl)pyrrolidin-1-yl)pyrazolo[1,5-a]pyrimidin-3-yl)-5,7-difluorobenzo[d]oxazole]
≤ 10 nM | – | COc1ccc2nc(-c3cnn4ccc(N5CCC[C@@H]5c5cc(F)ccc5F)nc34)[nH]c2c1F [Compound 127, (R)-5-(2-(2,5-difluorophenyl)pyrrolidin-1-yl)-3-(7-fluoro-6-methoxy-1H-benzo[d]imidazol-2-yl)pyrazolo[1,5-a]pyrimidine]
≤ 10 nM | – | COC(=O)c1ccc2[nH]c(-c3cnn4ccc(N5CCC[C@@H]5c5cc(F)ccc5F)nc34)cc2c1 [Compound 184, methyl (R)-2-(5-(2-(2,5-difluorophenyl)pyrrolidin-1-yl)pyrazolo[1,5-a]pyrimidin-3-yl)-1H-indole-5-carboxylate]
– | 1.9 nM | Fc1ccc(F)c([C@H]2CCCN2c2ccn3ncc(-c4nc5ncc(C(F)(F)F)cc5[nH]4)c3n2)c1 [Compound 110, (R)-2-(5-(2-(2,5-difluorophenyl)pyrrolidin-1-yl)pyrazolo[1,5-a]pyrimidin-3-yl)-6-(trifluoromethyl)-1H-imidazo[4,5-b]pyridine]
– | 1.9 nM | Fc1ccc(F)c([C@H]2CCCN2c2ccn3ncc(-c4nc5cc(F)c(F)cc5[nH]4)c3n2)c1 [Compound 136, (R)-3-(5,6-difluoro-1H-benzo[d]imidazol-2-yl)-5-(2-(2,5-difluorophenyl)pyrrolidin-1-yl)pyrazolo[1,5-a]pyrimidine]
– | 1.2 nM | N#Cc1cc2nc(-c3cnn4ccc(N5CCC[C@@H]5c5cc(F)ccc5F)nc34)oc2cc1O [Compound 177, (R)-2-(5-(2-(2,5-difluorophenyl)pyrrolidin-1-yl)pyrazolo[1,5-a]pyrimidin-3-yl)-6-hydroxybenzo[d]oxazole-5-carbonitrile]
10 to 50 nM | – | Fc1ccc(F)c([C@H]2CCCN2c2ccn3ncc(-c4nc5nc6ccccc6nc5[nH]4)c3n2)c1 [Compound 121, (R)-2-(5-(2-(2,5-difluorophenyl)pyrrolidin-1-yl)pyrazolo[1,5-a]pyrimidin-3-yl)-1H-imidazo[4,5-b]quinoxaline]
10 to 50 nM | – | COc1cnc(OC)n2nc(-c3cnn4ccc(N5CCC[C@@H]5c5cc(F)ccc5F)nc34)nc12 [Compound 181, (R)-2-(5-(2-(2,5-difluorophenyl)pyrrolidin-1-yl)pyrazolo[1,5-a]pyrimidin-3-yl)-5,8-dimethoxy-[1,2,4]triazolo[1,5-c]pyrimidine]
≤ 10 nM | – | COC(=O)c1cc2[nH]c(-c3cnn4ccc(N5CCC[C@@H]5c5cc(F)ccc5F)nc34)nc2cc1C#N [Compound 152, methyl (R)-5-cyano-2-(5-(2-(2,5-difluorophenyl)pyrrolidin-1-yl)pyrazolo[1,5-a]pyrimidin-3-yl)-1H-benzo[d]imidazole-6-carboxylate]
10 to 50 nM | – | NC(=O)N1CCc2nc(-c3cnn4ccc(N5CCC[C@@H]5c5cc(F)ccc5F)nc34)sc2C1 [Compound 191, (R)-2-(5-(2-(2,5-difluorophenyl)pyrrolidin-1-yl)pyrazolo[1,5-a]pyrimidin-3-yl)-6,7-dihydrothiazolo[5,4-c]pyridine-5(4H)-carboxamide]
≤ 10 nM | – | OCc1cc2nc(-c3cnn4ccc(N5CCC[C@@H]5c5cc(F)ccc5F)nc34)[nH]c2cn1 [Compound 135, (R)-(2-(5-(2-(2,5-difluorophenyl)pyrrolidin-1-yl)pyrazolo[1,5-a]pyrimidin-3-yl)-3H-imidazo[4,5-c]pyridin-6-yl)methanol]

Further lines, the compound ahead of its results:

SMILES | IC50 (class symbols) | IC50 (numeric values)
Fc1ccc(F)c([C@H]2CCCN2c2ccn3ncc(-c4nnc(-c5ccc6nc[nH]c6c5)[nH]4)c3n2)c1 [Compound 57, (R)-3-(5-(1H-benzo[d]imidazol-6-yl)-4H-1,2,4-triazol-3-yl)-5-(2-(2,5-difluorophenyl)pyrrolidin-1-yl)pyrazolo[1,5-a]pyrimidine] | – | 0.6 nM
OC12CC3CC(C1)CC(c1nnc(-c4cnn5ccc(N6CCC[C@@H]6c6cc(F)ccc6F)nc45)[nH]1)(C3)C2 [Compound 37, (1R,3r)-3-(5-(5-((R)-2-(2,5-difluorophenyl)pyrrolidin-1-yl)pyrazolo[1,5-a]pyrimidin-3-yl)-4H-1,2,4-triazol-3-yl)adamantan-1-ol] | – | 1.57 nM
OCC12CC(c3nnc(-c4cnn5ccc(N6CCC[C@@H]6c6cc(F)ccc6F)nc45)[nH]3)(C1)C2 [Compound 43, (R)-(3-(5-(5-(2-(2,5-difluorophenyl)pyrrolidin-1-yl)pyrazolo[1,5-a]pyrimidin-3-yl)-4H-1,2,4-triazol-3-yl)bicyclo[1.1.1]pentan-1-yl)methanol] | – | 2.51 nM
COc1cc2nc(-c3cnn4ccc(N5CCC[C@@H]5c5cc(F)ccc5F)nc34)[nH]c2cc1C(=O)NO [Compound 89, (R)-2-(5-(2-(2,5-difluorophenyl)pyrrolidin-1-yl)pyrazolo[1,5-a]pyrimidin-3-yl)-N-hydroxy-5-methoxy-1H-benzo[d]imidazole-6-carboxamide] | 10 to 50 nM | –
Fc1ccc(F)c([C@H]2CCCN2c2ccn3ncc(-c4nnc(C5CCN5)[nH]4)c3n2)c1 (stereo partly drawn) [Compound 15, 3-(5-(azetidin-2-yl)-4H-1,2,4-triazol-3-yl)-5-((R)-2-(2,5-difluorophenyl)pyrrolidin-1-yl)pyrazolo[1,5-a]pyrimidine] | > 50 nM | –
Cc1cncc2nc(-c3cnn4ccc(N5CCC[C@@H]5c5cc(F)ccc5F)nc34)[nH]c12 [Compound 99, (R)-2-(5-(2-(2,5-difluorophenyl)pyrrolidin-1-yl)pyrazolo[1,5-a]pyrimidin-3-yl)-7-methyl-1H-imidazo[4,5-c]pyridine] | – | 0.5 nM
OC(c1nnc(-c2cnn3ccc(N4CCC[C@@H]4c4cc(F)ccc4F)nc23)[nH]1)(C(F)(F)F)C(F)(F)F [Compound 27, (R)-2-(5-(5-(2-(2,5-difluorophenyl)pyrrolidin-1-yl)pyrazolo[1,5-a]pyrimidin-3-yl)-4H-1,2,4-triazol-3-yl)-1,1,1,3,3,3-hexafluoropropan-2-ol] | > 50 nM | –
CC(O)c1cc2nc(-c3cnn4ccc(N5CCC[C@@H]5c5cc(F)ccc5F)nc34)[nH]c2cn1 (stereo partly drawn) [Compound 70, 1-(2-(5-((R)-2-(2,5-difluorophenyl)pyrrolidin-1-yl)pyrazolo[1,5-a]pyrimidin-3-yl)-3H-imidazo[4,5-c]pyridin-6-yl)ethan-1-ol] | – | 0.5 nM
OC1(c2nnc(-c3cnn4ccc(N5CCC[C@@H]5c5cc(F)ccc5F)nc34)[nH]2)CC1 [Compound 53, (R)-1-(5-(5-(2-(2,5-difluorophenyl)pyrrolidin-1-yl)pyrazolo[1,5-a]pyrimidin-3-yl)-4H-1,2,4-triazol-3-yl)cyclopropan-1-ol] | – | 1.4 nM
Cc1nccc2nc(-c3cnn4ccc(N5CCC[C@@H]5c5cc(F)ccc5F)nc34)[nH]c12 [Compound 103, (R)-2-(5-(2-(2,5-difluorophenyl)pyrrolidin-1-yl)pyrazolo[1,5-a]pyrimidin-3-yl)-4-methyl-3H-imidazo[4,5-c]pyridine] | – | 1.2 nM
COc1cc2nc(-c3cnn4ccc(N5CCC[C@@H]5c5cc(F)ccc5F)nc34)[nH]c2cc1C(N)=O [Compound 91, (R)-2-(5-(2-(2,5-difluorophenyl)pyrrolidin-1-yl)pyrazolo[1,5-a]pyrimidin-3-yl)-5-methoxy-1H-benzo[d]imidazole-6-carboxamide] | – | 0.26 nM
Nc1ncnc2nc(-c3cnn4ccc(N5CCC[C@@H]5c5cc(F)ccc5F)nc34)[nH]c12 [Compound 87, (R)-8-(5-(2-(2,5-difluorophenyl)pyrrolidin-1-yl)pyrazolo[1,5-a]pyrimidin-3-yl)-7H-purin-6-amine] | – | 0.73 nM
Fc1ccc(F)c([C@H]2CCCN2c2ccn3ncc(-c4nc5cnc(N6CCOCC6)cc5[nH]4)c3n2)c1 [Compound 64, (R)-4-(2-(5-(2-(2,5-difluorophenyl)pyrrolidin-1-yl)pyrazolo[1,5-a]pyrimidin-3-yl)-1H-imidazo[4,5-c]pyridin-6-yl)morpholine] | > 50 nM | –
O[C@H](c1ccccc1)c1nnc(-c2cnn3ccc(N4CCC[C@@H]4c4cc(F)ccc4F)nc23)[nH]1 [Compound 42, (R)-(5-(5-((R)-2-(2,5-difluorophenyl)pyrrolidin-1-yl)pyrazolo[1,5-a]pyrimidin-3-yl)-4H-1,2,4-triazol-3-yl)(phenyl)methanol] | – | 3.9 nM
Fc1ccc(F)c([C@H]2CCCN2c2ccn3ncc(-c4nnc(-c5ccc(Oc6ccccc6)cc5)[nH]4)c3n2)c1 [Compound 58, (R)-5-(2-(2,5-difluorophenyl)pyrrolidin-1-yl)-3-(5-(4-phenoxyphenyl)-4H-1,2,4-triazol-3-yl)pyrazolo[1,5-a]pyrimidine] | > 50 nM | –
